Laboratory results taken from patent US5736510A, “Antibiotics 10381v, w, x,y, z1, z2, pre-b and t” (priority 1996, dated 1998).
Like-named read-outs stand apart in the source and are kept apart here.

Key:
Type in all cases: cell-based
S. hyodysenteriae = system: S. hyodysenteriae; design: unit not given here; conditions: Table IV (separate study)
Procedure: (§1) The assay measures the ability of a compound to inhibit the growth of certain types of anaerobic bacteria which normally inhabit the gut of poultry, swine or cattle.
(§2) Two mg/ml solutions of the drugs to be tested are made in 10% v/v ethanol/water. This stock is then diluted to one mg per ml and then further diluted through a series of ten-two fold dilutions. At each concentration an aliquot is placed in a sterile petri plate. Nine volumes of molten agar are then added to each plate, mixed and allowed to harden at room temperature. These plates are then transferred to a Coy chamber and allowed to dry and equilibrate with the oxygen free atmosphere.
(§3) Organisms used for MIC testing are inoculated into broth media, and incubated 18-24 h at 39° C. prior to use. The cultures are then diluted to equal the turbidity of a 0.5 MacFarland barium sulfate standard, except for the porcine isolates P108-3C1, P105-1C3 and P105-1C4 which are diluted 1:1. All inoculations and dilutions are performed in the anaerobic chamber using broth media and syringe transfer through the butyl robber stoppers.
(§4) Freshly prepared and diluted cultures are loaded into the wells of a Steers replicator device. This apparatus can dispense ca 10 μl of each of 32 cultures onto the surface of the preincubated agar plates. One hour after the inoculation, the inoculum will have been absorbed and the plates are inverted and incubated at 38°-39° C. for 48 h. Plates are then removed from the chamber and the MIC for the test compounds determined. MIC's are reported as the lowest concentration of a compound which prevented detectable growth of a test organism on the agar plates. […] Thus, each set of test plates yields individual MIC values for each of the 32 test organisms.

F. necrophorum = conditions: for M.I.C.: Table III, mass basis, no correction for purity; for Minimal Inhibitory Concentration (bioactivity data): Table IV (separate study)
E. ruminantium = conditions: strain GA195
M. elsdenii = conditions: strain B159
[1] = system: anaerobic bacteria which normally inhabit the gut of poultry, swine or cattle; assay: in vitro MIC assay, overall comparison of components across the test organisms; conditions: conclusion from Tables III and IV
Procedure: as §1, §2, §3, §4

S. bovis = conditions: strain JB1
R. flavefaciens = conditions: for M.I.C.: Table III, mass basis, no correction for purity; for Minimal Inhibitory Concentration (bioactivity data): Table IV (separate study)
E. lentum = conditions: strain L-34; Table IV (separate study)
B. thetaiotaomicron = conditions: strain UC9014
Procedure: as §1, §2, §3, §4

B. fragilis = conditions: strain UC9370
S. ruminantium = conditions: for M.I.C.: Table III, mass basis, no correction for purity; for Minimal Inhibitory Concentration (bioactivity data): Table IV (separate study)
B. fibrisolvens = conditions: for M.I.C.: Table III, mass basis, no correction for purity; for Minimal Inhibitory Concentration (bioactivity data): Table IV (separate study)
C. perfringens = system: C. perfringens; design: Minimal Inhibitory Concentration (bioactivity data): unit not given here; conditions: for M.I.C.: Table III, mass basis, no correction for purity; for Minimal Inhibitory Concentration (bioactivity data): Table IV (separate study)
S. faecalis = conditions: for M.I.C.: Table III, mass basis, no correction for purity; for Minimal Inhibitory Concentration (bioactivity data): Table IV (separate study)
P. ruminicola = conditions: strain 118B
L. multiparus = conditions: strain 40
R. amylophilus = conditions: strain H18
[2] = Table III, mass basis, no correction for purity

Q: With C=C(NC(=O)C(=C)NC(=O)C(=C)NC(=O)c1ccc2c(n1)-c1nc(oc1C)C(C)NC(=O)c1csc(n1)C(C)NC(=O)c1nc(oc1C)CNC(=O)C(C(C)C)NC(=O)c1csc-2n1)C(N)=O (stereo not drawn) [Antibiotic 10381x] as the compound, how does the “Minimal Inhibitory Concentration (bioactivity data)” value (“Minimal Inhibitory Concentration” below) (S. hyodysenteriae; strain 16-4) read?
A: > 100

Q: And the “Minimal Inhibitory Concentration” value (S. hyodysenteriae; strain B204)?
A: > 100

Q: What about the M.I.C. (F. necrophorum; strain FN4070) of the same compound?
A: > 100.0 µg/mL

Q: And the “Minimal Inhibitory Concentration” value (F. necrophorum; strain FN4070)?
A: > 100

Q: What about the M.I.C. (F. necrophorum; strain FN5052) of the same compound?
A: > 100.0 µg/mL

Q: What about the “Minimal Inhibitory Concentration” value (F. necrophorum; strain FN5052) of the same compound?
A: > 100

Q: What about the M.I.C. (E. ruminantium; [2]) of the same compound?
A: 3.1 µg/mL

Q: What about the “Minimal Inhibitory Concentration” value (E. ruminantium; Table IV (separate study)) of the same compound?
A: 100

Q: What about the M.I.C. (M. elsdenii; [2]) of the same compound?
A: > 100.0 µg/mL

Q: What about the “Minimal Inhibitory Concentration” value (M. elsdenii; Table IV (separate study)) of the same compound?
A: > 100

Q: What about the “in vitro activity ranking of the individual components” value [1] of the same compound?
A: considerably less active

Q: And the M.I.C. (S. bovis; [2])?
A: 25.0 µg/mL

Q: And the “Minimal Inhibitory Concentration” value (S. bovis; Table IV (separate study))?
A: > 100

Q: What about the M.I.C. (R. flavefaciens; strain C94) of the same compound?
A: 3.1 µg/mL

Q: What about the “Minimal Inhibitory Concentration” value (R. flavefaciens; strain C94) of the same compound?
A: > 100

Q: What about the M.I.C. (R. flavefaciens; strain FD1) of the same compound?
A: 6.3 µg/mL

Q: What about the “Minimal Inhibitory Concentration” value (R. flavefaciens; strain FD1) of the same compound?
A: 100

Q: What about the “Minimal Inhibitory Concentration” value (E. lentum) of the same compound?
A: < 0.2

Q: And the M.I.C. (B. thetaiotaomicron; [2])?
A: 50.0 µg/mL

Q: What about the “Minimal Inhibitory Concentration” value (B. thetaiotaomicron; Table IV (separate study)) of the same compound?
A: > 100

Q: What about the M.I.C. (B. fragilis; [2]) of the same compound?
A: 100.0 µg/mL

Q: And the “Minimal Inhibitory Concentration” value (B. fragilis; Table IV (separate study))?
A: > 100

Q: What about the M.I.C. (S. ruminantium; strain GA31) of the same compound?
A: > 100.0 µg/mL

Q: And the “Minimal Inhibitory Concentration” value (S. ruminantium; strain GA31)?
A: 6.3

Q: And the M.I.C. (S. ruminantium; strain GA192)?
A: > 100.0 µg/mL

Q: What about the “Minimal Inhibitory Concentration” value (S. ruminantium; strain GA192) of the same compound?
A: 6.3

Q: What about the M.I.C. (B. fibrisolvens; strain 49) of the same compound?
A: 1.6 µg/mL

Q: And the “Minimal Inhibitory Concentration” value (B. fibrisolvens; strain 49)?
A: > 100

Q: And the M.I.C. (B. fibrisolvens; strain D1)?
A: 3.1 µg/mL

Q: What about the “Minimal Inhibitory Concentration” value (B. fibrisolvens; strain D1) of the same compound?
A: 100

Q: And the M.I.C. (C. perfringens; strain 71A02)?
A: 6.3 µg/mL

Q: What about the M.I.C. (C. perfringens; strain A82-1) of the same compound?
A: 50.0 µg/mL

Q: And the “Minimal Inhibitory Concentration” value (C. perfringens; strain A82-1)?
A: > 100

Q: What about the M.I.C. (C. perfringens; strain A83-3) of the same compound?
A: 6.3 µg/mL

Q: And the “Minimal Inhibitory Concentration” value (C. perfringens; strain A83-3)?
A: 25.0

Q: And the M.I.C. (C. perfringens; strain A83-RKP)?
A: 1.6 µg/mL

Q: And the “Minimal Inhibitory Concentration” value (C. perfringens; strain A83-RKP)?
A: 50.0

Q: And the M.I.C. (C. perfringens; strain CCS1-11)?
A: 50.0 µg/mL

Q: And the M.I.C. (C. perfringens; strain CCS2-09)?
A: 1.6 µg/mL

Q: What about the “Minimal Inhibitory Concentration” value (C. perfringens; strain CCS2-09) of the same compound?
A: 100

Q: What about the M.I.C. (C. perfringens; strain P1051C3) of the same compound?
A: > 100.0 µg/mL

Q: And the “Minimal Inhibitory Concentration” value (C. perfringens; strain P1051C3)?
A: > 100

Q: What about the M.I.C. (C. perfringens; strain P1083C1) of the same compound?
A: 1.6 µg/mL

Q: And the “Minimal Inhibitory Concentration” value (C. perfringens; strain P1083C1)?
A: 100

Q: What about the M.I.C. (C. perfringens; strain RF1B04) of the same compound?
A: 3.1 µg/mL

Q: What about the “Minimal Inhibitory Concentration” value (C. perfringens; strain RF1B04) of the same compound?
A: 50.0

Q: And the M.I.C. (C. perfringens; strain UC9452)?
A: 6.3 µg/mL

Q: And the “Minimal Inhibitory Concentration” value (C. perfringens; strain UC9452)?
A: 50.0

Q: And the M.I.C. (S. faecalis; strain 71A01)?
A: 100.0 µg/mL

Q: What about the “Minimal Inhibitory Concentration” value (S. faecalis; strain 71A01) of the same compound?
A: > 100

Q: And the M.I.C. (S. faecalis; strain CCS1-03)?
A: 50.0 µg/mL

Q: And the “Minimal Inhibitory Concentration” value (S. faecalis; strain CCS1-03)?
A: > 100

Q: What about the M.I.C. (S. faecalis; strain P1051C4) of the same compound?
A: 50.0 µg/mL

Q: What about the “Minimal Inhibitory Concentration” value (S. faecalis; strain P1051C4) of the same compound?
A: > 100

Q: What about the M.I.C. (P. ruminicola; [2]) of the same compound?
A: 0.2 µg/mL

Q: And the “Minimal Inhibitory Concentration” value (P. ruminicola; Table IV (separate study))?
A: 12.5

Q: And the M.I.C. (L. multiparus; [2])?
A: 6.3 µg/mL

Q: What about the “Minimal Inhibitory Concentration” value (L. multiparus; Table IV (separate study)) of the same compound?
A: > 100

Q: What about the M.I.C. (R. amylophilus; [2]) of the same compound?
A: > 100.0 µg/mL

Q: What about the “Minimal Inhibitory Concentration” value (R. amylophilus; Table IV (separate study)) of the same compound?
A: 25.0
